Data: BindingDB's records for doi:10.1021/jm049161u (Pfizer, 2006)

Legend:
[1] = biological target: Peptidyl-prolyl cis-trans isomerase FKBP1A (Homo sapiens, UniProt P62942); experiment: Peptidyl Prolyl Isomerase (PPIase) Inibition Assay; conditions: pH 8; 15 °C
Description: (§1) It is based on the observation that chymotrypsin cleaves the C-terminal amide bond only in the trans conformer of the chromogenic substrate. The rapid hydrolysis perturbs the cis-trans conformational equilibrium, which allows one to monitor the PPIase-catalyzed cis-to-trans isomerization. […] Rate constants were generated from the absorbance versus time plots at 8-12 compound concentrations. The Kiapp was determined from the corrected rate constants using an IC50 equation or a tight-binding equation by Morrison.

[2] = biological target: Peptidyl-prolyl cis-trans isomerase FKBP1A (Bos taurus, UniProt P18203); experiment: Peptidyl Prolyl Isomerase (PPIase) Inibition Assay
Description: as §1

Sequence of Peptidyl-prolyl cis-trans isomerase FKBP1A (Bos taurus, UniProt P18203) (P18203 whole entry): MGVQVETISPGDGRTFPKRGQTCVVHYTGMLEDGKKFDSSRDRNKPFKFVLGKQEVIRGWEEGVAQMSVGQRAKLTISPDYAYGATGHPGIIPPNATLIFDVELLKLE
Sequence of Peptidyl-prolyl cis-trans isomerase FKBP1A (Homo sapiens, UniProt P62942) (P62942 whole entry): as the sequence (P18203 whole entry) above, with V50M, N95H, I99V counted along it

COc1cc2c(c(OC)c1)C1C3CCCC(C(=O)N1CC2)N3C(=O)C(=O)c1cc(Cl)ccc1Cl (configuration not stated) [1-(2,5-dichlorophenyl)-2-{4,6-dimethoxy-12-oxo-11,17-diazatetracyclo[11.3.1.0^{2,11}.0^{3,8}]heptadeca-3(8),4,6-trien-17-yl}ethane-1,2-dione]
Ki [1]: 8.1 µM

COc1cc2c(c(OC)c1)C1C3CCCC(C(=O)N1CC2)N3C(=O)Nc1ccccc1 (configuration not stated) [4,6-dimethoxy-12-oxo-N-phenyl-11,17-diazatetracyclo[11.3.1.0^{2,11}.0^{3,8}]heptadeca-3(8),4,6-triene-17-carboxamide]
Ki [2]: 2700 nM

COc1cc2c(c(OC)c1)C1C3CCCC(C(=O)N1CC2)N3C(=O)Nc1ccccc1OC (configuration not stated) [4,6-dimethoxy-N-(2-methoxyphenyl)-12-oxo-11,17-diazatetracyclo[11.3.1.0^{2,11}.0^{3,8}]heptadeca-3(8),4,6-triene-17-carboxamide]
Ki [2]: 357 nM

COc1cc2c(c(OC)c1)C1C3CCCC(C(=O)N1CC2)N3C(=O)Nc1ccccc1C (configuration not stated) [4,6-dimethoxy-N-(2-methylphenyl)-12-oxo-11,17-diazatetracyclo[11.3.1.0^{2,11}.0^{3,8}]heptadeca-3(8),4,6-triene-17-carboxamide]
Ki [2]: 330 nM

COc1cc2c(c(OC)c1)C1C3CCCC(C(=O)N1CC2)N3C(=O)Nc1ccc([N+](=O)[O-])cc1 (configuration not stated) [4,6-dimethoxy-N-(4-nitrophenyl)-12-oxo-11,17-diazatetracyclo[11.3.1.0^{2,11}.0^{3,8}]heptadeca-3(8),4,6-triene-17-carboxamide]
Ki [2]: 772 nM

COc1cc(OC)cc(N2C=C3C4CCCC(C(=O)N3CC2=O)N4C(=O)C(=O)c2cc(OC)c(OC)c(OC)c2)c1 (configuration not stated) [4-(3,5-dimethoxyphenyl)-13-[2-oxo-2-(3,4,5-trimethoxyphenyl)acetyl]-4,7,13-triazatricyclo[7.3.1.0^{2,7}]tridec-2-ene-5,8-dione]
Ki [2]: 54 nM

COc1cc2c(c(OC)c1)C1C3CCCC(C(=O)N1CC2)N3C(=O)Nc1ccc(F)cc1F (configuration not stated) [N-(2,4-difluorophenyl)-4,6-dimethoxy-12-oxo-11,17-diazatetracyclo[11.3.1.0^{2,11}.0^{3,8}]heptadeca-3(8),4,6-triene-17-carboxamide]
Ki [2]: 7000 nM
